A short description of data set [1]: Dose range testing in healthy mice without tumor. To be noted: healthy B6 mice without tumor; taking into consideration the solubility. In kind it is in vivo.
For the next data set, the system named is A2780/taxol. Kind of data set: Antiproliferation assay (Alamar Blue), A2780/taxol. It is filed as cell-based. The settings on record: Homo sapiens, taxol resistant ovarian cancer, read-out: EC50 of YL001. As for the experimental part: (§1) Cytotoxic activities of the compounds of interest were investigated with human cancer cell lines using the Alamar Blue assay. Cells (5 × 10^3 cells/well) were seeded into 96-well plates (Corning, 3603). Various sample concentrations (compounds of interest) were added to each well in duplicate, and incubated at 37°C with 5% CO2 for two days such that cells were in the exponential growth phase at the time of drug addition. Ten microliters of the Alamar Blue Solution (Invitrogen, Alamar Blue) were added to each well and incubated at 37°C for up to 2 hours in a humidified, 5% CO2 atmosphere. After incubation, florescence was measured using a microplate reader (Tecan) at an excitation wavelength of 540 nm and emission of 590 nm. Each inhibitory concentration was measured in triplicate, and averaged data points ± SD are shown. Statistical analysis was carried out with GraphPad Prism 5 and the fifty-percent effective concentration is expressed as EC50.

A further data set concerns B16 melanoma xenograft. Kind of data set: B16 melanoma xenograft model. It is filed as in vivo. How it is done: B16 cells (1 × 10^6 cells) were inoculated s.c. into 6-week old C57BL/6 mice. Tumor volume was calculated as: V = 1/2× L (long axis)×W^2 (short axis). When the volume of tumor was between 50 to 100 mm^3, YL001 was administered i.p. daily on days 1 to 10 at 200 mg/kg. Doses and schedules were determined by tolerance studies. Mice were kept under specific pathogen-free conditions, and all animal experiments were approved by the Committee on Animal Research at our institute.
Vehicle (10% (v%) N,N-Dimethylacetamide (DMAC) in 200 μL olive oil per 20 g mouse) was administered daily i.p. as a control on days 1 to 10. Drug efficiency was expressed as the ratio of the mean experimental V/V0 value to that of the control group [treated versus control (T/C) ratio], where V is the tumor volume on the day of evaluation and V0 is the tumor volume on the day of initial treatment with the drug. Drug efficiency was also evaluated by median survival. All statistical analysis was performed using Graphpad Prism 5.

The subject of another data set is CNE-2Z. Description: Antiproliferation assay (Alamar Blue), CNE-2Z. In kind it is cell-based. To be noted: Homo sapiens, CNE2Z, nasopharyngeal cancer, read-out: EC50 of YL001. How it is done: as §1
In another data set the target is Eg5 (Homo sapiens, UniProt P52732). Kind of data set: Inhibition of Eg5 ATPase activity. In kind it is biochemical. To be noted: read-out: Enzyme EC50. As for the experimental part:
All experiments were performed as previously described. Data were analyzed using GraphPad Prism 5 and Microsoft Excel to obtain EC50 values. […] Each inhibitory concentration was measured in triplicate, and averaged data points ± SD are shown.

The test system of the next data set is B16. Description: Antiproliferation assay (Alamar Blue), B16. It is filed as cell-based. To be noted: B16, mouse melanoma; read-out: EC50 of YL001.
A further data set relates to HeLa cells. Kind of data set: Colony formation. In kind it is cell-based. To be noted: Homo sapiens, exposed 24 hours, cultured 10 days. As for the experimental part: HeLa cells (5 × 10^2 cells/well) were seeded into 6-well plates and were treated with a series of gradient concentrations of YL001 for 24 hours, followed by washing and continual culture for 10 days. DMSO was used as a negative control, and STLC was used as a positive control. Cells were fixed with ethanol for more than 30 minutes and dyed with crystal violet for more than 30 minutes. Clones were counted with OpenCFU [54].

For a further data set, the system named is MCF10A. Description: Antiproliferation assay, normal breast cell line MCF10A. In kind it is cell-based. As for the experimental part:
as §1

A further data set deals with 786-O. Kind of data set: Antiproliferation assay (Alamar Blue), 786-O. The settings on record: Homo sapiens, 786-0, renal cancer, read-out: EC50 of YL001. In kind it is cell-based. How it is done: as §1
For the next data set, the system named is DU145. Kind of data set: Antiproliferation assay (Alamar Blue), DU145. It is filed as cell-based. To be noted: Homo sapiens, DU-145; DU145, prostate cancer; read-out: EC50 of YL001. How it is done: as §1
Data set [2] deals with human and rodent cancer cell lines. Kind of data set: Antiproliferative activity over the panel of 15 cancer cell lines. It is filed as cell-based. The settings on record: 15 cell lines tested, read-out: EC50 values predominantly in the range. As for the experimental part: as §1
The test system of a further data set is MCF-7. Description: Antiproliferation assay (Alamar Blue), MCF-7. The settings on record: Homo sapiens, MCF7; MCF-7, breast cancer; read-out: EC50 of YL001. In kind it is cell-based. How it is done:
as §1

Data set [3] concerns panel of 468 typical, atypical and mutant human kinases. Kind of data set: Kinase profiling (KINOMEscan, DiscoverX). It is filed as binding. The settings on record: 468 kinases, 1 μM. How it is done:
Kinase profiling was conducted by the DiscoverX as KINOMEscan profiling service for testing the inhibition of YL001 of interest against 468 kinases. Selectivity score S(35) was defined as follows:
S(35) = (number of non-mutant kinases with% Control < 35)/(number of non-mutant kinases tested).

Another data set deals with 4T1/6TG. Description: Antiproliferation assay (Alamar Blue), 4T1/6TG. It is filed as cell-based. The settings on record: 6TG resistant mouse breast cancer, read-out: EC50 of YL001.
The subject of a further data set is K562. Description: Antiproliferation assay (Alamar Blue), K562. To be noted: Homo sapiens; K562, leukemia; read-out: EC50 of YL001. It is filed as cell-based. As for the experimental part:
as §1

Here are results for 1 compound from article PMC5522084, “Eg5 inhibitor YL001 induces mitotic arrest and inhibits tumor proliferation” (Oncotarget, 2017).

A value given as a limit tells only on which side of the number the result lay.

Chain of Eg5 (P52732 whole entry): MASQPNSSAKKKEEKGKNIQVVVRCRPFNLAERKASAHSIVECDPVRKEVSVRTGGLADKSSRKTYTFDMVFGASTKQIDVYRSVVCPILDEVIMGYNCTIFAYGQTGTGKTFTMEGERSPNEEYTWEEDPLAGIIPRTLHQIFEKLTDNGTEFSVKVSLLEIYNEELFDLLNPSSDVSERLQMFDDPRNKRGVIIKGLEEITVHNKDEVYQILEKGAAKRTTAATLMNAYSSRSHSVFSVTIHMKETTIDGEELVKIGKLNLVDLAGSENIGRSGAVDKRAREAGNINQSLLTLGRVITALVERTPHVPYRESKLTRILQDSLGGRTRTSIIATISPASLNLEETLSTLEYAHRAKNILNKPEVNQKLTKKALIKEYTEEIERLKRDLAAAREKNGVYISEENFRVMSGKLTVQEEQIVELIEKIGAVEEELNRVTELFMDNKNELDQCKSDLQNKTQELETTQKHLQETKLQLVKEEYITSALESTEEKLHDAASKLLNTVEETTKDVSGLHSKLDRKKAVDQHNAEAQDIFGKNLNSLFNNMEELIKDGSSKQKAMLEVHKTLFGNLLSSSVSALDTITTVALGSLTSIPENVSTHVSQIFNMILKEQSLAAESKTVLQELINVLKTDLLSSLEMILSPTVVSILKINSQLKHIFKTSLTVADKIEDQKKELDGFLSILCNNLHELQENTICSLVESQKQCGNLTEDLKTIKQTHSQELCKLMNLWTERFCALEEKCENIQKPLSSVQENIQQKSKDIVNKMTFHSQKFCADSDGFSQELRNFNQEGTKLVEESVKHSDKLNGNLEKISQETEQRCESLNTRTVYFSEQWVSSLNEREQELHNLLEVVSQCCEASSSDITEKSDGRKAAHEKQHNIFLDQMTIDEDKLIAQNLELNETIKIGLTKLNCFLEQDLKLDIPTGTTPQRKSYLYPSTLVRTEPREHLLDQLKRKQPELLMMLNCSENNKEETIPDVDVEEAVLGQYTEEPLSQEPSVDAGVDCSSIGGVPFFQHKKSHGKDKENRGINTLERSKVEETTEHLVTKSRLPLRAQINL

`Cc1ccc(-n2nnnc2/C(=C/N(C)C)C(=O)c2cccc(C(F)(F)F)c2)cc1` [YL001, (Z)-3-(dimethylamino)-2-(1-(p-tolyl)-1H-tetrazol-5-yl)-1-(3-(trifluoromethyl)phenyl)prop-2-en-1-one]: in [1], the maximal therapeutic dose amounted to 200 mg/kg. The half-maximal effective concentration (EC50) in the data set on A2780/taxol is 20.1 ± 0.68 µM; in the data set with CNE-2Z it was 5.94 ± 0.02 µM; at Eg5, 1.18 µM; in the data set on B16 it was 13.9 ± 5.03 µM; in the data set with MCF10A (Homo sapiens, MCF-10A, MCF10A, breast normal cell, read-out: EC50 of YL001), more than 100 µM; in the data set on 786-O it was 14.7 ± 0.62 µM. Besides, the EC50 was 26.5 ± 0.27 µM in the data set with DU145; 5 to 20 µM in data set [2]; 14.9 ± 2.57 µM in the data set with MCF-7; 20 ± 0.5 µM in the data set with 4T1/6TG; 9.76 ± 0.52 µM with K562. The “adverse effects / toxicity” value in the data set with B16 melanoma xenograft (200 mg/kg i.p. daily for 10 days, body weight) was “no adverse effects were observed”. Moreover, the “minimum T/C ratio” value in the data set with B16 melanoma xenograft (200 mg/kg i.p. daily for 10 days, tumor volume) was 0.40. For the same compound, the Medium survival time in the data set on B16 melanoma xenograft (200 mg/kg, B16 tumor-bearing mice) is more than 33 days. In addition, the tumor growth inhibition with B16 melanoma xenograft (xenograft mouse model, 200 mg/kg i.p. daily) came out at 60%. For the same compound, in the data set with HeLa cells, the IC50 came out at 0.124 µM. For the same compound, the Therapeutic window with MCF10A was more than 6.7. The “activity against kinase panel” value in [3] is reported as “no activity”.
